The values below come from patent US10457976B2, “Preparing antibodies from CHO cell cultures for conjugation” (SEATTLE GENETICS, INC., priority 2013, dated 2019).

The test system of the test is QSOX1 sulfhydryl oxidase (oxidizing activity in lot DEVNKB-1). The experiment in a line: Sulfhydryl oxidizing activity of lot DEVNKB-1 with additives (ferrous oxidation xylenol orange, FOX, assay). It counts as biochemical, Chinese hamster. The protocol:
Further to characterize the oxidizing activity in lot DEVNKB-1, the lot was tested for sulfhydryl oxidizing activity using the ferrous oxidation xylenol orange (FOX) assay. Sulfhydryl oxidases catalyze the following reaction: 2R—SH+O2→R—S—S—R+H2O2 As the reaction proceeds, oxygen is consumed and hydrogen peroxide is produced. The hydrogen peroxide by-product can be detected readily and reliably, and thus serves as a proxy for sulfhydryl oxidase activity. In the FOX assay, hydrogen peroxide oxidizes ferrous iron (Fe^2+) to produce ferric iron (Fe^3+). The […] complexes with xylenol orange to form a compound that absorbs 560 nm light. Thus, by monitoring absorption of 560 nm light (e.g., using a spectrophotometer), the amount of sulfhydryl oxidizing activity in a sample can be determined. The value of a negative control is compared to the value of the test sample by determining the difference in the 560 nm reading. If the resulting value is greater than 0.1 absorbance units, then the samples is positive for oxidizing impurity. […] Addition of both DEVNKB-1 and 1 mM Zn^2+, however, was only 0.008. […] This is consistent with the oxidizing agent having a flavin-dependent sulfhydryl oxidase domain, such as QSOX1.
Further assays were performed to see whether EDTA could reverse the Zn^2+-dependent elimination of oxidizing activity in lot DEVNKB-1. In these experiments, Zn^2+ was added to the assay buffer, either with or without EDTA. In addition, assay buffer having EDTA was evaluated. […] Addition of both Zn^2+ and additional EDTA, however, reduced the oxidizing activity by only 6%. Thus, the EDTA effectively reversed the Zn^2+-dependent inhibition of oxidizing activity. Again, this is what is expected for an oxidizing agent that has a flavin-dependent sulfhydryl oxidase domain, such as QSOX1.

[1] abbreviates: Table 2, additive in assay buffer, with or without additional EDTA.
Where [2] appears, read: Table 2, relative to assay buffer with additional EDTA (100%).

Regarding `O=C(O)CN(CCN(CC(=O)O)CC(=O)O)CC(=O)O` [EDTA], the “Difference (absorption without minus with DEVNKB-1)” value under setting [1] was 0.572. Also, the “% Activity” value under setting [2] was 100%.
With `[Zn+2]` [Zn2+], the “Difference (absorption without minus with DEVNKB-1)” value by setting is: (Table 1, additive 1 mM, 560 nm absorption) 0.0079; (Table 1, additive 1 mM, 560 nm absorption, listed as Zn^2+) 0.008; under setting [1], 0.03097. Further, the “% Activity” value runs as follows: (Table 1, additive 1 mM, relative to DEVNKB-1 without additive) 1%; under setting [2], 5%. In addition, the “reduction of oxidizing activity associated with lot DEVNKB-1” value (relative to assay buffer that contained additional EDTA) was 95%.
